# Test results taken from publication PMC6222425, “Novel 5′-Norcarbocyclic Derivatives of Bicyclic Pyrrolo- and Furano[2,3-d]Pyrimidine Nucleosides” (Molecules : A Journal of Synthetic Chemistry and Natural …, 2018).
# Read-outs that look alike come from different tables or passages of the source.
# Key:
# Type in all cases: cell-based
# [1] = tested on: HuTu-80 (human duodenal cancer) cells; assay: Cell viability analysis by MTT assay, HuTu-80; settings: for IC50: Homo sapiens, HuTu80, MTT, 48 h incubation, read-out: Antiproliferative activity, IC50, HuTu80; for Selectivity index, HuTu80: ratio of IC50 on normal hFF3 cells to IC50 of HuTu80
# Description: (§1) The target compounds were tested on different lines of tumor cells, HuTu-80 (human duodenal cancer), B16 (mouse melanoma), A549 (human lung adenocarcinoma), KB-3-1 (human squamous cell carcinoma), HeLa (human squamous cell carcinoma of the cervix), as well as on human noncancer cells hFF3.
# (§2) Human KB-3-1 epidermoid carcinoma cell line, human HeLa cervical epithelioid carcinoma cell line, human HuTu-80 duodenal cancer cells, human A549 lung carcinoma epithelial cells, mouse B16 melanoma cell line and human hFF3 fibroblast cells were obtained from the Russian Cell Culture Collection (St. Petersburg, Russia) and were cultured in DMEM (hFF3 cells in IMDM) supplemented with 10% (v/v) heat-inactivated fetal bovine serum, penicillin (100 U mL^−1), streptomycin (100 µg mL^−1) and amphotericin ([…]). Cells were maintained in a humidified atmosphere of 5% CO2 at 37 °C.
# (§3) All compounds were dissolved in dimethylsulfoxide (DMSO) and stock solutions (10 mmol L^−1) were stored at −20 °C.
# (§4) Cells growing in the logarithmic phase were seeded in triplicate in 96-well plates at a density of 5 × 10^3 cells per well for HeLa and HuTu-80 cells, 7 × 10^3 cells per well for KB-3-1 and hFF3, 10 × 10^3 for A549 and 20 × 10^3 for B16. The plates were incubated at 37 °C in a humidified 5% CO2 atmosphere. Cells were allowed to adhere to the surface for 24 h and then tested compounds were added at different concentrations and incubation was continued for 48 h. Then [3-(4,5-dimethylthiazol-2-yl)-2,5-diphenyltetrazolium bromide] (MTT) solution (10 µL, 5 mg mL^−1) was added to each well and the incubation was continued for an additional 3 h. The dark blue formazan crystals formed within the healthy cells were solubilized with DMSO and the absorbance was measured using a Multiscan RC plate reader at 570 nm. The IC50 was determined as the compound concentration required to decrease the A570 to 50% compared to the control (no tested compounds, DMSO) and was determined by interpolation from dose-response curves.
# [2] = tested on: B16 (mouse melanoma) cells; assay: Cell viability analysis by MTT assay, B16; settings: for IC50: MTT, 48 h incubation, read-out: Antiproliferative activity, IC50, B16; for Selectivity index, B16: ratio of IC50 on normal hFF3 cells to IC50 of B16
# Description: as §1, §2, §3, §4
# [3] = tested on: A549 (human lung adenocarcinoma) cells; assay: Cell viability analysis by MTT assay, A549; settings: for IC50: Homo sapiens, A549, MTT, 48 h incubation, read-out: Antiproliferative activity, IC50, A549; for Selectivity index, A549: ratio of IC50 on normal hFF3 cells to IC50 of A549
# Description: as §1, §2, §3, §4
# [4] = tested on: KB-3-1 (human epidermoid carcinoma) cells; assay: Cell viability analysis by MTT assay, KB-3-1; settings: for IC50: MTT, 48 h incubation, read-out: Antiproliferative activity, IC50, KB-3-1; for Selectivity index, KB-3-1: ratio of IC50 on normal hFF3 cells to IC50 of KB-3-1
# Description: as §1, §2, §3, §4
# [5] = tested on: HeLa (human cervical epithelioid carcinoma) cells; assay: Cell viability analysis by MTT assay, HeLa; settings: for IC50: Homo sapiens, HeLa, MTT, 48 h incubation, read-out: Antiproliferative activity, IC50, HeLa; for Selectivity index, HeLa: ratio of IC50 on normal hFF3 cells to IC50 of HeLa
# Description: as §1, §2, §3, §4
# [6] = tested on: human noncancer cells hFF3 (fibroblasts); assay: Cell viability analysis by MTT assay, normal hFF3 cells; settings: for IC50: normal cells, MTT, 48 h incubation, read-out: Antiproliferative activity, IC50, hHFF3; for Toxic effect on normal hFF3 cells: concentrations up to 100 μM
# Description: as §1, §2, §3, §4
SMILES,IC50 [1] [µM],"IC50 ([2]; Mus musculus, 48 h) [µM]",IC50 [3] [µM],"IC50 ([4]; Homo sapiens, KB 3-1, 48 h) [µM]","Selectivity index, KB-3-1 [4]",IC50 [5] [µM],"Selectivity index, HeLa [5]","IC50 ([6]; Homo sapiens, HFF-3, 48 h) [µM]",Toxic effect on normal hFF3 cells [6],"Selectivity index, A549 [3]","Selectivity index, HuTu80 [1]","Selectivity index, B16 [2]",IC50 [2] [µM],IC50 [6] [µM],IC50 [4] [µM]
"CCCc1cc2cn(C3C=CC(O)C3)c(=O)nc2o1 (stereo not shown) [Compound 3a, 1-(4′-Hydroxy-2′-cyclopenten-1′-yl)-6-propyl-3H-furano[2,3-d]-pyrimidine-2-one]",> 100,> 100,> 100,40.1 ± 5.2,>2.5,63.4 ± 6.8,>1.6,> 100,not toxic,,,,,,
"CCCCCCc1cc2cn(C3C=CC(O)C3)c(=O)nc2o1 (stereo not shown) [Compound 3c, 1-(4′-Hydroxy-2′-cyclopenten-1′-yl)-6-hexyl-3H-furano[2,3-d]-pyrimidine-2-one]",100,> 100,50.3 ± 6.1,45.3 ± 5.1,>2.2,> 100,,> 100,not toxic,>1.9,,,,,
"CCCCCCCCc1cc2cn(C3C=CC(O)C3)c(=O)nc2o1 (stereo not shown) [Compound 3d, 1-(4′-hydroxy-2′-cyclopenten-1′-yl)-6-octyl-3Hfurano[2,3-d]-pyrimidine-2-one]",46.3 ± 5.7,46.2 ± 3.4,54.1 ± 6.1,47.3 ± 4.2,1,40.6 ± 3.9,1.2,48.2 ± 5.1,,0.9,1,1,,,
"CCCCCCCCCCc1cc2cn(C3C=CC(O)C3)c(=O)nc2o1 (stereo not shown) [Compound 3e, 1-(4′-hydroxy-2′-cyclopenten-1′-yl)-6-decyl-3Hfurano[2,3-d]-pyrimidine-2-one]",7.3 ± 2.4,21.3 ± 3.1,36.2 ± 11.3,11.2 ± 5.3,1,4.5 ± 0.9,2.6,11.6 ± 2.1,,0.3,1.6,0.5,,,
"CCCCCCCCCCCCc1cc2cn(C3C=CC(O)C3)c(=O)nc2o1 (stereo not shown) [Compound 3f, 1-(4′-hydroxy-2′-cyclopenten-1′-yl)-6-dodecyl-3Hfurano[2,3-d]-pyrimidine-2-one]",7.1 ± 0.8,4.5 ± 0.3,10.5 ± 1.9,10.2 ± 4.1,1,2.5 ± 0.3,4.1,10.2 ± 1.8,,1,1.4,2.3,,,
"O=c1nc2oc(-c3ccccc3)cc2cn1C1C=CC(O)C1 (stereo not shown) [Compound 3g, 1-(4′-Hydroxy-2′-cyclopenten-1′-yl)-6-phenyl-3H-furano[2,3-d]-pyrimidine-2-one]",> 100,> 100,> 100,30.1 ± 4.1,>3.3,45.3 ± 5.1,>2.2,> 100,not toxic,,,,,,
"CC(C)(C)c1ccc(-c2cc3cn(C4C=CC(O)C4)c(=O)nc3o2)cc1 (stereo not shown) [Compound 3h, 1-(4′-Hydroxy-2′-cyclopenten-1′-yl)-6-tertbutylphenyl-3H-furano[2,3-d]-pyrimidine-2-one]",9.9 ± 1.7,10.1 ± 2.3,7.2 ± 0.8,1.7 ± 0.2,3,2.3 ± 0.3,2.2,5.1 ± 0.7,,0.7,0.5,0.5,,,
"CCCCCc1cc2cn(C3C=CC(O)C3)c(=O)nc2[nH]1 (stereo not shown) [Compound 4b, 1-(4′-Hydroxy-2′-cyclopenten-1′-yl)-6-pentyl-3H-pyrrolo[2,3-d]-pyrimidine-2-one]",80.4 ± 0.9,> 100,45.3 ± 3.9,25.2 ± 3.4,>3.9,50.1 ± 4.7,>1.9,> 100,,>2.2,>1.2,,,,
"CCCCCCc1cc2cn(C3C=CC(O)C3)c(=O)nc2[nH]1 (stereo not shown) [Compound 4c, 1-(4′-Hydroxy-2′-cyclopenten-1′-yl)-6-hexyl-3H-pyrrolo[2,3-d]-pyrimidine-2-one]",20.4 ± 3.9,> 100,35.2 ± 4.1,25.6 ± 2.9,>3.9,50.7 ± 6.2,>1.9,> 100,,>2.8,>4.9,,,,
"CCCCCCCCc1cc2cn(C3C=CC(O)C3)c(=O)nc2[nH]1 (stereo not shown) [Compound 4d, 1-(4′-Hydroxy-2′-cyclopenten-1′-yl)-6-octyl-3H-pyrrolo[2,3-d]-pyrimidine-2-one]",30.2 ± 2.9,> 100,100,25.4 ± 3.1,>3.9,20.1 ± 1.9,>4.9,> 100,,,>3.3,,,,
"CCCCCCCCCCc1cc2cn(C3C=CC(O)C3)c(=O)nc2[nH]1 (stereo not shown) [Compound 4e, 1-(4′-Hydroxy-2′-cyclopenten-1′-yl)-6-decyl-3H-pyrrolo[2,3-d]-pyrimidine-2-one]",23.4 ± 7.8,25,36.2 ± 6.2,18.4 ± 7.1,3.4,11 ± 2.1,5.7,63,,1.7,2.6,2.5,25.1 ± 2.4,62.5 ± 8.3,
"CCCCCCCCCCCCc1cc2cn(C3C=CC(O)C3)c(=O)nc2[nH]1 (stereo not shown) [Compound 4f, 1-(4′-Hydroxy-2′-cyclopenten-1′-yl)-6-dodecyl-3H-pyrrolo[2,3-d]-pyrimidine-2-one]",3.1 ± 0.4,3.1 ± 0.3,4.5 ± 0.2,4.5 ± 0.9,0.8,3.2 ± 0.4,1,3.4 ± 0.7,,0.8,1.1,1.1,,,
"O=c1nc2[nH]c(-c3ccccc3)cc2cn1C1C=CC(O)C1 (stereo not shown) [Compound 4g, 1-(4′-Hydroxy-2′-cyclopenten-1′-yl)-6-phenyl-3H-pyrrolo[2,3-d]-pyrimidine-2-one]",> 100,> 100,50.2 ± 6.7,45.4 ± 5.3,>2.2,90.2 ± 9.6,>1.1,> 100,not toxic,>2,,,,,
"CC(C)(C)c1ccc(-c2cc3cn(C4C=CC(O)C4)c(=O)nc3[nH]2)cc1 (stereo not shown) [Compound 4h, 1-(4′-Hydroxy-2′-cyclopenten-1′-yl)-6-(4-tertbutylphenyl)-3H-pyrrolo[2,3-d]-pyrimidine-2-one]",25.4 ± 3.1,35,25.3 ± 2.9,15,4.6,25.8 ± 4.6,2.7,70,,2.8,2.8,1.9,35.6 ± 4.2,70.9 ± 9.1,15.3 ± 1.1
